The supplement of paper PMC4862054

Tests used:
Details in all cases: incubation time: 72 h
[1] = system: MDA-MB-453; assay: normalised response (% of control), CellTox Green; higher = less cell death (100 = DMSO, 0 = benzethonium chloride kill control)
How it was run: (§1)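 Each value is the plate-normalised signal at one concentration of the series. Breast cancer cell lines (20 µl suspension) were incubated 72 h in 384-well plates with compound at 5 concentrations in 10-fold steps over a compound-specific 10,000-fold range. CellTox Green and then CellTiter-Glo were read, and each plate was scaled to 0.1 % DMSO (100) and a positive kill control (0).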

[2] = system: MDA-MB-468; assay: as above
How it was run: as §1

[3] = system: Hs578T; assay: as above
How it was run: as §1

[4] = system: HCC1599; assay: as above
How it was run: as §1

[5] = system: MDA-MB-231; assay: as above
How it was run: as §1

[6] = system: HCC1937; assay: as above
How it was run: as §1

[7] = system: CAL-85-1; assay: as above
How it was run: as §1

[8] = system: BT-549; assay: as above
How it was run: as §1

[9] = system: MDA-MB-436; assay: as above
How it was run: as §1

[10] = system: DU-4475; assay: as above
How it was run: as §1

[11] = system: CAL-120; assay: as above
How it was run: as §1

[12] = system: CAL-148; assay: as above
How it was run: as §1

[13] = system: MFM-223; assay: as above
How it was run: as §1

[14] = system: BT-474; assay: as above
How it was run: as §1

[15] = system: CAL-51; assay: as above
How it was run: as §1

[16] = system: MDA-MB-453; assay: normalised response (% of control), CellTiter-Glo; higher = more viable cells (100 = DMSO, 0 = benzethonium chloride kill control)
Method: (§2)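 DSRT, 72 h incubation, CellTox Green / CellTiter-Glo readout. Signal is normalised to DMSO and benzethonium chloride controls. Value is the normalised response at dose 3.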

[17] = system: MDA-MB-468; assay: as above
Method: as §2

[18] = system: Hs578T; assay: as above
Method: as §2

[19] = system: HCC1599; assay: as above
Method: as §2

[20] = system: MDA-MB-231; assay: as above
Method: as §2

[21] = system: HCC1937; assay: as above
Method: as §2

[22] = system: CAL-85-1; assay: as above
Method: as §2

[23] = system: BT-549; assay: as above
Method: as §2

[24] = system: MDA-MB-436; assay: as above
Method: as §2

[25] = system: MCF-10A; assay: as above
Method: as §2

[26] = system: DU-4475; assay: as above
Method: as §2

[27] = system: SK-BR-3; assay: as above
Method: as §2

[28] = system: CAL-120; assay: as above
Method: as §2

[29] = system: CAL-148; assay: as above
Method: as §2

[30] = system: MFM-223; assay: as above
Method: as §2

[31] = system: BT-474; assay: as above
Method: as §2

[32] = system: CAL-51; assay: as above
Method: as §2

[33] = system: HDQ-P1; assay: as above
Method: as §2

[34] = system: HCC1143; assay: as above
Method: as §2

[35] = system: MCF-10A; assay: normalised response (% of control), CellTox Green; higher = less cell death (100 = DMSO, 0 = benzethonium chloride kill control)
How it was run: as §1

[36] = system: HDQ-P1; assay: as above
How it was run: as §1

[37] = system: HCC1143; assay: as above
How it was run: as §1

Row | Compound | normalised response [1] | normalised response [2] | normalised response [3] | normalised response [4] | normalised response [5] | normalised response [6] | normalised response [7] | normalised response [8] | normalised response [9] | normalised response [10] | normalised response [11] | normalised response [12] | normalised response [13] | normalised response [14] | normalised response [15] | normalised response [16] | normalised response [17] | normalised response [18] | normalised response [19] | normalised response [20] | normalised response [21] | normalised response [22] | normalised response [23] | normalised response [24] | normalised response [25] | normalised response [26] | normalised response [27] | normalised response [28] | normalised response [29] | normalised response [30] | normalised response [31] | normalised response [32] | normalised response [33] | normalised response [34] | normalised response [35] | normalised response [36] | normalised response [37]
1 | COc1nc(N)nc2c1ncn2[C@@H]1O[C@H](CO)[C@@H](O)[C@@H]1O [Nelarabine] (100 nM) | 97.5% | 135% | 107% | 87% | 92.1% | 88.7% | 90.6% | 98.7% | 90.5% | 95.2% | 98.4% | 104% | 100% | 75.7% | 93.8% | 87.2% | 95.6% | 87.1% | 103% | 94.2% | 95.5% | 94.7% | 98.1% | 94% | 84.9% | 93.6% | 77.8% | 94.2% | 83.2% | 89% | 89.2% | 90.7% | 95.9% | 103% |  |  | 
2 | O=C(NC[C@H](O)CO)c1ccncc1Nc1ccc(I)cc1F [Pimasertib] (100 nM) | 99.4% | 108% | 113% | 118% | 59.1% | 101% | 91.4% | 59.3% |  | 69.4% | 96.5% | 107% | 107% | 98% | 107% | 112% | 95.3% | 88.9% | 85.2% | 83.5% | 89.2% | 82.4% | 103% | 97.5% | 41.7% | 4.09% | 94% | 92.4% | 90.4% | 103% | 81.9% | 73.7% | 67.1% | 94.7% | 98.9% | 104% | 99.8%
3 | O=C(CCBr)N1CCN(C(=O)CCBr)CC1 [Pipobroman] (100 nM) |  |  |  | 96.6% | 94.4% |  | 109% | 70.2% | 101% | 101% | 101% | 105% | 103% | 87.5% | 101% | 93.2% | 102% | 105% | 115% | 105% | 106% | 101% | 97.6% | 91.5% | 106% | 106% | 107% | 102% | 105% | 103% | 102% | 88% | 102% | 105% | 84.8% | 107% | 108%
